Assay results: patent US20260274833A1 (NiKang Therapeutics, Inc., priority 2022, published 2026)

The compounds below were run against T1, CDK2 (Homo sapiens, UniProt P24941) (assay: Phospho-RB measurement in OVCAR3 cells (HTRF phospho-RB cellular kit)). Details: inhibition of RB phosphorylation at S807/811 (HTRF, TR-FRET ratio 665/620), 24 h compound treatment, 0.3 to 10,000 nM.
T1 construct: endogenous in cells; host or cells: OVCAR3 cells
Format: cell-based
Procedure, shortened: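 IC50 came from a four-parameter logistic fit of the DMSO-normalized TR-FRET ratio (665/620 nm). That ratio reflects RB phosphorylation at S807/811, read with an HTRF antibody pair 4 h after adding lysate at room temperature.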

| IC50 | Structure (SMILES) |
| --- | --- |
| 8310 nM | O=S1(=O)CC2(CC(Nc3nccc(-c4sc(C56CC(C5)C6)nc4-c4cccc(NS(=O)(=O)N5C6CCC5c5ccccc56)c4F)n3)C2)C1 [Example 268, N-(3-(2-(bicyclo [1.1.1]pentan-1-yl)-5-(2-((2,2-dioxido-2-thiaspiro[3.3]heptan-6-yl)amino)-pyrimidin-4-yl)thiazol-4-yl)-2-fluorophenyl)-1,2,3,4-tetrahydro-1,4-epiminonaphthalene-9-sulfonamide] |
| 70.6 nM | CS(=O)(=O)CC12CC(Nc3nccc(-c4sc(C56CC(C5)C6)nc4-c4cccc(NS(=O)(=O)N5CCc6ccc(Cl)cc65)c4F)n3)(C1)C2 [Example 269, N-(3-(2-(bicyclo [1.1.1]pentan-1-yl)-5-(2-((3-((methylsulfonyl)methyl)bicyclo-[1.1.1]pentan-1-yl)amino)pyrimidin-4-yl)thiazol-4-yl)-2-fluorophenyl)-6-chloroindoline-1-sulfonamide] |
| 3430 nM | O=S1(=O)CC2(CC(Nc3nccc(-c4sc(C56CC(C5)C6)nc4-c4cccc(NS(=O)(=O)N5CC6CCC(CC6)C5)c4F)n3)C2)C1 [Example 270, (1s,5s)-N-(3-(2-(bicyclo[1.1.1]pentan-1-yl)-5-(2-((2,2-dioxido-2-thiaspiro[3.3]-heptan-6-yl)-amino)pyrimidin-4-yl)thiazol-4-yl)-2-fluorophenyl)-3-azabicyclo[3.2.2] nonane-3-sulfonamide] |
| 8150 nM | N=S1(=O)CC2(CC(Nc3nccc(-c4sc(C56CC(C5)C6)nc4-c4cccc(NS(=O)(=O)N5CCc6ccccc65)c4F)n3)C2)C1 (stereo not shown) [Example 271, N-(3-(2-(bicyclo [1.1.1]pentan-1-yl)-5-(2-((2-imino-2-oxido-26-thiaspiro[3.3]-heptan-6-yl)-amino)pyrimidin-4-yl)thiazol-4-yl)-2-fluorophenyl) indoline-1-sulfonamide] |
| 350 nM | O=S1(=O)CC2(CC(Nc3nccc(-c4sc(C56CC(C5)C6)nc4-c4cccc(NS(=O)(=O)N5CCOc6ccccc6C5)c4F)n3)C2)C1 [Example 272, N-(3-(2-(bicyclo [1.1.1]pentan-1-yl)-5-(2-((2,2-dioxido-2-thiaspiro[3.3]heptan-6-yl)amino)-pyrimidin-4-yl)thiazol-4-yl)-2-fluorophenyl)-2,3-dihydrobenzo-[f][1,4]oxazepine-4(5H)-sulfonamide] |
| 3280 nM | O=S1(=O)CC2(CC(Nc3nccc(-c4sc(C56CC(C5)C6)nc4-c4cccc(NS(=O)(=O)N5CCOCc6ccccc65)c4F)n3)C2)C1 [Example 273, N-(3-(2-(bicyclo [1.1.1]pentan-1-yl)-5-(2-((2,2-dioxido-2-thiaspiro[3.3]heptan-6-yl)amino)-pyrimidin-4-yl)thiazol-4-yl)-2-fluorophenyl)-2,3-dihydrobenzo-[e][1,4]oxazepine-1(5H)-sulfonamide] |
| 130 nM | CN1CCN(S(=O)(=O)Nc2cccc(-c3nc(C45CC(C4)C5)sc3-c3ccnc(NC4CC5(C4)CS(=O)(=O)C5)n3)c2F)c2ccccc21 [Example 274, N-(3-(2-(bicyclo [1.1.1]pentan-1-yl)-5-(2-((2,2-dioxido-2-thiaspiro[3.3]heptan-6-yl)amino)-pyrimidin-4-yl)thiazol-4-yl)-2-fluorophenyl)-4-methyl-3,4-dihydro-quinoxaline-1(2H)-sulfonamide] |
| 339 nM | CN1CCN(S(=O)(=O)Nc2cccc(-c3nc(C45CC(C4)C5)sc3-c3ccnc(NC4CC5(C4)CS(=O)(=O)C5)n3)c2F)Cc2ccccc21 [Example 275, N-(3-(2-(bicyclo [1.1.1]pentan-1-yl)-5-(2-((2,2-dioxido-2-thiaspiro[3.3]heptan-6-yl)amino)-pyrimidin-4-yl)thiazol-4-yl)-2-fluorophenyl)-1-methyl-1,2,3,5-tetrahydro-4H-benzo[e][1,4]-diazepine-4-sulfonamide] |
| 192 nM | CS(=O)(=O)[C@H]1CC[C@H](Nc2nccc(-c3sc(C45CC(F)(C4)C5)nc3-c3cccc(NS(=O)(=O)N4CCc5ccc(C(F)(F)F)cc54)c3F)n2)CC1 [Example 276, N-(2-fluoro-3-(2-(3-fluorobicyclo-[1.1.1]pentan-1-yl)-5-(2-(((1s,4s)-4-(methylsulfonyl)-cyclohexyl)amino)-pyrimidin-4-yl)thiazol-4-yl)phenyl)-6-(trifluoromethyl) indoline-1-sulfonamide] |
| 111 nM | O=S1(=O)CC2(CC(Nc3nccc(-c4sc(C56CC(F)(C5)C6)nc4-c4cccc(NS(=O)(=O)N5CCc6ccc(C(F)(F)F)cc65)c4F)n3)C2)C1 [Example 277, N-(3-(5-(2-((2,2-dioxido-2-thiaspiro-[3.3]-heptan-6-yl)amino)pyrimidin-4-yl)-2-(3-fluorobicyclo [1.1.1]pentan-1-yl)-thiazol-4-yl)-2-fluorophenyl)-6-(trifluoromethyl) indoline-1-sulfonamide] |
| 103 nM | O=S1(=O)CC2(CC(Nc3nccc(-c4sc(C56CC(C(F)F)(C5)C6)nc4-c4cccc(NS(=O)(=O)N5CCc6ccc(C(F)(F)F)cc65)c4F)n3)C2)C1 [Example 278, N-(3-(2-(3-(difluoromethyl)bicyclo-[1.1.1]-pentan-1-yl)-5-(2-((2,2-dioxido-2-thiaspiro[3.3]heptan-6-yl)amino)-pyrimidin-4-yl)thiazol-4-yl)-2-fluorophenyl)-6-(trifluoromethyl)-indoline-1-sulfonamide] |
| 409 nM | O=S1(=O)CC2(CC(Nc3nccc(-c4sc(C56CC(C(F)(F)F)(C5)C6)nc4-c4cccc(NS(=O)(=O)N5CCc6ccc(C(F)(F)F)cc65)c4F)n3)C2)C1 [Example 279, N-(3~(5-(2-((2,2-dioxido-2-thiaspiro-[3.3]heptan-6-yl)amino)pyrimidin-4-yl)-2-(3-(trifluoromethyl)bicyclo[1.1.1]-pentan-1-yl)thiazol-4-yl)-2-fluoro-phenyl)-6-(trifluoromethyl) indoline-1-sulfonamide] |
| 285 nM | O=S1(=O)CC2(CC(Nc3nccc(-c4sc(C56CC(C(F)(F)F)(C5)C6)nc4-c4cccc(NS(=O)(=O)N5CCc6ccc(Cl)cc65)c4F)n3)C2)C1 [Example 280, 6-chloro-N-(3-(5-(2-((2,2-dioxido-2-thiaspiro[3.3]heptan-6-yl)amino)-pyrimidin-4-yl)-2-(3-(trifluoromethyl)-bicyclo[1.1.1]pentan-1-yl)thiazol-4-yl)-2-fluorophenyl) indoline-1-sulfonamide] |
| 739 nM | O=S1(=O)CC2(CC(Nc3nccc(-c4sc(C56CC(C(F)(F)F)(C5)C6)nc4-c4cccc(NS(=O)(=O)N5CCc6ccccc65)c4F)n3)C2)C1 [Example 281] |
| 357 nM | CS(=O)(=O)[C@H]1CC[C@H](Nc2nccc(-c3sc(C4(C(F)(F)F)CC4)nc3-c3cccc(NS(=O)(=O)N4CCc5ccc(C(F)(F)F)cc54)c3F)n2)CC1 [Example 282, N-(2-fluoro-3-(5-(2-(((1r,4r)-4-(methylsulfonyl)cyclohexyl)amino)pyrimidin-4-yl)-2-(1-(trifluoromethyl)-cyclopropyl)thiazol-4-yl)phenyl)-6-(trifluoromethyl) indoline-1-sulfonamide] |
| 200 nM | CS(=O)(=O)[C@H]1CC[C@H](Nc2nccc(-c3sc(C4(C(F)(F)F)CC4)nc3-c3cccc(NS(=O)(=O)N4CCc5ccc(Cl)cc54)c3F)n2)CC1 [Example 283, 6-chloro-N-(2-fluoro-3-(5-(2-(((1r,4r)-4-(methylsulfonyl)cyclohexyl)amino)pyrimidin-4-yl)-2-(1-(trifluoromethyl)-cyclopropyl)thiazol-4-yl)phenyl)-indoline-1-sulfonamide] |
